Test results taken from publication PMC5571211 (Scientific Reports, 2017).

Assays:
LTC4S = biological target: T1, LTC4S (Homo sapiens, UniProt Q16873); conditions: cited from earlier work
T1 construct: expressed in transfected cells; host or cells: HEK293 stably expressing LTC4S (geneticin selection), microsomal fraction
T1 sequence (Q16873 1-150): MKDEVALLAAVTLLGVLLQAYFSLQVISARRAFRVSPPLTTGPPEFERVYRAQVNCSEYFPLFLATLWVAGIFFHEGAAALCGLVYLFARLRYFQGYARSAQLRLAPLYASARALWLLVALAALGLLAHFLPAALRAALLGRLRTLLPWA

recombinant human COX-2 = biological target: T2, recombinant human COX-2 (Homo sapiens, UniProt P35354); test: COX-2 activity, cell-free (12-HHT formation); type: biochemical; conditions: 10 µM
T2 construct: purchased Cayman Chemical (Biomol, Hamburg, Germany)
T2 sequence (P35354 18-604): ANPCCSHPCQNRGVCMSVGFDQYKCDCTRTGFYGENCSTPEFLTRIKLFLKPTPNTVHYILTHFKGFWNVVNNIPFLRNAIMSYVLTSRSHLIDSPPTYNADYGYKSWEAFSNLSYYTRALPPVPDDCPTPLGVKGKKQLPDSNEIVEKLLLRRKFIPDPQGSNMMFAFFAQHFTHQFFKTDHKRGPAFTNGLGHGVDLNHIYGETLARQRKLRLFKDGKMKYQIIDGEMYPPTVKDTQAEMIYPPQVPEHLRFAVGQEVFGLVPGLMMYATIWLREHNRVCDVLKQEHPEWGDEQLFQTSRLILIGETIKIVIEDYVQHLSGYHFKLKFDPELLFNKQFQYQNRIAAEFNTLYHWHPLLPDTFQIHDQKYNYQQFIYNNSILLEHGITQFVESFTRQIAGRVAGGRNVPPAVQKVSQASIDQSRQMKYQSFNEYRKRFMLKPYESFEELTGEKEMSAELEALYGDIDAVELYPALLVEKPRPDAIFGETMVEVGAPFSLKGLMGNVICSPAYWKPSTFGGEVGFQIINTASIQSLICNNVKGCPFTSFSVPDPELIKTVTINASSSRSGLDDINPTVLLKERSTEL
Method: COX activity was assayed by using purified ovine COX-1 and recombinant human COX-2, respectively. Enzymes were diluted in Tris buffer (100 mM, pH 8) supplemented with glutathione (5 mM), EDTA (100 µM) and hemoglobin (5 µM) to a final concentration of 50 U/mL (COX-1) or 20 U/mL (COX-2) and pre-incubated with test compounds or vehicle (0.1% DMSO) for 5 min at RT. After 30 sec at 37 °C, reactions were started with 5 µM AA (COX-1) or 2 µM AA (COX-2) and stopped after 5 min at 37 °C by addition of one volume of ice-cold methanol. Solid phase extraction was performed as described above after addition of 200 ng of internal PGB1 standard and COX product formation was determined by analysis of 12-HHT formation as reported before.

15-LOX = 15-LOX activity (15-HETE) in intact neutrophils; type: cell-based, human; conditions: A23187 and 20 µM AA, concentration-dependently elevated
Method: In order to examine 5-LOX product formation in intact human neutrophils and monocytes, freshly isolated cells were resuspended in PBS buffer containing 0.1% glucose and 1 mM CaCl2 (PGC buffer) to a final cell density of 5 × 10^6 or 2 × 10^6, respectively. […] 5-LOX product formation was stopped by addition of one volume of ice-cold methanol, samples were subjected to solid phase extraction after addition of 200 ng PGB1 as internal standard and 5-LOX products were analyzed by RP-HPLC as described above.

Compound	inhibition of MAPEG family member LTC4S (LTC4S)	inhibition of COX-2 activity (recombinant human COX-2)	15-HETE formation (15-LOX)
CC(C)c1ccc2c(c1)c(SC(C)(C)C)c(CC(C)(C)C(=O)O)n2Cc1ccc(Cl)cc1 [MK886, 3-[1-(4-chlorobenzyl)-3-t-butyl-thio-5-isopropylindol-2-yl]-2,2 - dimethylpropanoic acid]	inhibit		
Cc1cc(OCc2nc3ccccc3s2)ccc1NC(=O)Nc1ccc(Cl)c(Cl)c1 [diflapolin, N-[4-(benzothiazol-2-ylmethoxy)-2-methylphenyl]-N′-(3,4-dichlorophenyl)urea]		did not significantly inhibit	up to 200 % of the vehicle control
